Results reported in ChEMBL document CHEMBL6134780, “Halogenated retinoid derivatives as dual RARα and RXRα modulators for treating acute promyelocytic leukemia cells” (Eur J Med Chem, 2024).
The source made the active and inactive calls. The rule behind the calls is not given here.

What was measured:
ATRA-resistant NB4-LR2 = experiment: Induction of cell differentiation in human ATRA-resistant NB4-LR2 cells at 0.5 uM incubated for 6 days by flow cytometric analysis; type: functional, cell-based; settings: time 6.0 day
[1] = Induction of apoptosis in human ATRA-resistant NB4-LR2 cells assessed as late apoptotic cells at 1 uM incubated for 24 hrs by Annexin V-FITC/PI staining based flow cytometric analysis (reference value: 5.62 %); type: functional
NB-4 [2] = experiment: Cell cycle arrest in human NB4 cells assessed as accumulation of cells at S phase at 2 uM incubated for 6 hrs by DAPI staining based flow cytometric analysis (reference value: 20 %); type: functional
K562 [3] = experiment: Induction of apoptosis in human K562 cells assessed as necrotic cells at 1 uM incubated for 24 hrs by Annexin V-FITC/PI staining based flow cytometric analysis (reference value: 2.19 %); type: functional
NB-4 [4] = experiment: Cell cycle arrest in human NB4 cells assessed as accumulation of cells at G0/G1 phase at 2 uM incubated for 3 hrs by DAPI staining based flow cytometric analysis (reference value: 56 %); type: functional
[5] = target: T1, Retinoic acid receptor gamma (Homo sapiens) (UniProt P13631); experiment: Agonist activity at Gal4-fused full length RARgamma LBD (unknown origin) transfected in HEK293T cells co-transfected with pG5luc reporter and Renilla-luc assessed as transactivation at 0.1 to 1 uM incubated for 12 hrs by luciferase reporter gene assay; type: cell-based; settings: dose 0.1-1 µM
T1 sequence (whole entry): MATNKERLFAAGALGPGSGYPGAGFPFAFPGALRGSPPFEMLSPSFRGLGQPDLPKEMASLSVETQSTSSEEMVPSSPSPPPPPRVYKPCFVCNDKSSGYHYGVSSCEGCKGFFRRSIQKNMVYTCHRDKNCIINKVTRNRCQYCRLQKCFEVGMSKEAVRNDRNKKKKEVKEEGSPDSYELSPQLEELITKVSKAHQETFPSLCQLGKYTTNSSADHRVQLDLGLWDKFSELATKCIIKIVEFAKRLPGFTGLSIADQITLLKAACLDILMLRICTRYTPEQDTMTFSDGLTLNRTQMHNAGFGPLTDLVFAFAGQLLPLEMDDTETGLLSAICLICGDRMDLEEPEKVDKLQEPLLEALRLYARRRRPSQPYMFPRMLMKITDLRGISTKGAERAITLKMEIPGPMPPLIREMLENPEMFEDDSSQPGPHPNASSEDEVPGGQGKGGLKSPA

[6] = Cell cycle arrest in human ATRA-resistant NB4-LR2 cells assessed as accumulation of cells at S phase at 1 uM incubated for 24 hrs by DAPI staining based flow cytometric analysis (reference value: 21 %); type: functional
NB-4 [7] = experiment: Cell cycle arrest in human NB4 cells assessed as accumulation of cells at S phase at 1 uM incubated for 12 hrs by DAPI staining based flow cytometric analysis (reference value: 20 %); type: functional
NB-4 [8] = experiment: Cell cycle arrest in human NB4 cells assessed as accumulation of cells at G0/G1 phase at 0.5 uM incubated for 6 days for DAPI staining based flow cytometric analysis (reference value: 52 %); type: functional; settings: time 6 day
NB-4 [9] = experiment: Cell cycle arrest in human NB4 cells assessed as accumulation of cells at G2/M phase at 0.5 uM incubated for 6 days for DAPI staining based flow cytometric analysis (reference value: 15 %); type: functional; settings: time 6 day
NB-4 [10] = experiment: Cell cycle arrest in human NB4 cells transfected with pLVX-shRNA2-negative control assessed as accumulation of cells at G2/M phase at 1 uM incubated for 12 hrs by DAPI staining based flow cytometric analysis (reference value: 24 %); type: functional
K562 [11] = experiment: Induction of cell differentiation in human K562 cells at 0.5 uM incubated for 6 days by CD11b staining based flow cytometric analysis; type: functional; settings: time 6.0 day
[12] = Cell cycle arrest in human ATRA-resistant NB4-LR2 cells assessed as accumulation of cells at sub-G1 phase at 2 uM incubated for 6 hrs by DAPI staining based flow cytometric analysis (reference value: 9 %); type: functional
NB-4 [13] = experiment: Induction of cell death in M phase synchronized human NB4 cells assessed as reduction in mitotic cells at 0.5 uM preincubated for 4 days followed by release from thymidine block for 10 hrs by immunofluorescence staining based analysis; type: functional; settings: time 106.0 hrs
NB-4 [14] = experiment: Antiproliferative activity against human NB4 cells assessed as inhibition of cell viability incubated for 3 days by CCK8 assay; type: functional, cell-based; settings: dose <= 3.5 µM, time 3.0 day
NB-4 [15] = experiment: Cell cycle arrest in human NB4 cells assessed as accumulation of cells at sub-G1 phase at 0.5 uM incubated for 6 days for DAPI staining based flow cytometric analysis (reference value: 6 %); type: functional; settings: time 6 day
NB-4 [16] = experiment: Induction of apoptosis in human NB4 cells assessed as PARP cleavage at >1 uM incubated for 24 hrs by Western blot analysis; type: functional, cell-based
[17] = Induction of apoptosis in human ATRA-resistant NB4-LR2 cells assessed as viable cells at 1 uM incubated for 24 hrs by Annexin V-FITC/PI staining based flow cytometric analysis (reference value: 87.30 %); type: functional; settings: read-out: Activity
[18] = Induction of apoptosis in human ATRA-resistant NB4-LR2 cells assessed as necrotic cells at 1 uM incubated for 24 hrs by Annexin V-FITC/PI staining based flow cytometric analysis (reference value: 0.08 %); type: functional
NB-4 [19] = experiment: Cell cycle arrest in human NB4 cells assessed as accumulation of cells at G2/M phase at 2 uM incubated for 12 hrs by DAPI staining based flow cytometric analysis (reference value: 21 %); type: functional
K562 [20] = experiment: Induction of apoptosis in human K562 cells assessed as late apoptotic cells at 2 uM incubated for 24 hrs by Annexin V-FITC/PI staining based flow cytometric analysis (reference value: 5.98 %); type: functional
K562 [21] = experiment: Induction of apoptosis in human K562 cells assessed as viable cells at 2 uM incubated for 24 hrs by Annexin V-FITC/PI staining based flow cytometric analysis (reference value: 90.02 %); type: functional; settings: read-out: Activity
HEK293T = experiment: Agonist activity at full length RARalpha LBD R276E mutant (unknown origin) transfected in HEK293T cells co-transfected with pG5luc reporter and Renilla-luc at 1 uM incubated for 12 hrs by luciferase reporter gene assay; type: cell-based; settings: Homo sapiens
Jurkat = experiment: Induction of cell differentiation in human Jurkat cells at 0.5 uM incubated for 6 days by CD11b staining based flow cytometric analysis; type: functional; settings: time 6.0 day
NB-4 [22] = experiment: Induction of cell differentiation in human NB4 cells at 0.5 uM incubated for 4 to 6 days by CD11b staining based flow cytometric analysis; type: functional; settings: time 4-6 day
[23] = target: Oxysterols receptor LXR-beta (Homo sapiens) (UniProt P55055); experiment: Agonist activity at Gal4-fused full length LXRbeta LBD (unknown origin) transfected in HEK293T cells co-transfected with pG5luc reporter and Renilla-luc at 0.1 to 1 uM incubated for 12 hrs by luciferase reporter gene assay; type: cell-based; settings: dose 0.1-1 µM
Sequence of Oxysterols receptor LXR-beta (Homo sapiens) (P55055 whole entry, the tested form may be a part): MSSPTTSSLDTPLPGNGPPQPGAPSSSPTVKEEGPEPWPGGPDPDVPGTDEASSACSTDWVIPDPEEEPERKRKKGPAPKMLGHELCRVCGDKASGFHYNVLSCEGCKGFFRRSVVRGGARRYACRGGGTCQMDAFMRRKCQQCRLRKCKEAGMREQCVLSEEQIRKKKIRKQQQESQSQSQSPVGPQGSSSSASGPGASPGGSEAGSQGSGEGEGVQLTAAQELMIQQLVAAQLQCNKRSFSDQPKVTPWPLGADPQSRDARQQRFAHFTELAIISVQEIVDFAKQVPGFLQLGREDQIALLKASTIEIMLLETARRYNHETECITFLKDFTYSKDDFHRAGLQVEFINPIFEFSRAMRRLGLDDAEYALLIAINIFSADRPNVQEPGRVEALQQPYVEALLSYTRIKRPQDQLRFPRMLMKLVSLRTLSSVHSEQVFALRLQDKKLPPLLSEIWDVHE

NB-4 [24] = experiment: Cell cycle arrest in human NB4 cells assessed as accumulation of cells at G0/G1 phase at low concentration by DAPI staining based flow cytometric analysis; type: functional
NB-4 [25] = experiment: Cell cycle arrest in human NB4 cells assessed as accumulation of cells at G2/M phase at 2 uM incubated for 3 to 12 hrs by DAPI staining based flow cytometric analysis; type: functional; settings: time 3-12 hrs

| SMILES | Activity (ATRA-resistant NB4-LR2) | Activity (K562 [3]) [%] | Activity [5] | Activity (NB-4 [8]) [%] | Activity (NB-4 [9]) [%] | Activity (K562 [11]) | Activity (NB-4 [13]) | Activity (NB-4 [14]) | Activity (NB-4 [15]) [%] | Activity (NB-4 [16]) | viability at 1 µM [17] [%] | Activity [18] [%] | Activity (K562 [20]) [%] | viability at 2 µM (K562 [21]) [%] | Activity (HEK293T) | Activity (Jurkat) | Activity (NB-4 [22]) | Activity [23] | other results |
| --- | --- | --- | --- | --- | --- | --- | --- | --- | --- | --- | --- | --- | --- | --- | --- | --- | --- | --- | --- |
| Cc1cc2c(cc1C(=O)/C(Br)=C/c1ccc(C(=O)O)cc1)C(C)(C)CCC2(C)C | Minimal_effect | 2.27 | Weak_effect | 71 | 13 | inactive | Active | Dose-dependent-effect | 9 | Active | 56.2 | 1.44 | 7.92 | 88.6 | inactive | inactive | Active | Minimal_effect | Activity [1]: 20.28%; Activity (NB-4 [2]): 27%; Activity (NB-4 [4]): 48%; Activity [6]: 18%; Activity (NB-4 [7]): 13%; Activity (NB-4 [10]): 54%; Activity [12]: 22%; Activity (NB-4 [19]): 62% |
| Cc1cc2c(cc1C(=O)/C(Br)=C\c1ccc(C(=O)O)cc1)C(C)(C)CCC2(C)C | Minimal_effect | 2.02 | Weak_effect | 72 | 14 | inactive | Active | Dose-dependent-effect | 6 | Active | 67.8 | 0.49 | 7.14 | 88.8 | inactive | inactive | Active | Minimal_effect | Activity (NB-4 [24]): Active; Activity (NB-4 [25]): Active |
